Molecules are shown by their SMILES.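 Assay format: 96-well plates, 48-hour exposure. Abbreviation: GI50, concentration required for 50% inhibition of growth. TGI marks complete inhibition of growth.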

We go through nine compounds from PubChem BioAssay (NCI).

Some test systems named below: ACHN renal; CAKI-1 renal; K-562 leukemia; OVCAR-4 ovarian; OVCAR-5 ovarian; OVCAR-8 ovarian; SK-OV-3 ovarian; SN12C renal; SNB-19 CNS; UO-31 renal.
Test in all cases: growth of human tumour cells (NCI), 48 h

`O=C1CCCCCCCCCCOC(=O)CCCCCCCCCCO1`: the TGI in the assay with ACHN renal, in the assay on CAKI-1 renal, with K-562 leukemia, in the assay with OVCAR-4 ovarian, with OVCAR-5 ovarian and with OVCAR-8 ovarian was more than 100 µM throughout. Further, the TGI with SK-OV-3 ovarian, in the assay on SN12C renal, in the assay with SNB-19 CNS and with UO-31 renal was more than 100 µM in each case.
As for `COC(=O)c1cc2c(nc1C)-c1ccccc1OS2(=O)=O`, the TGI in the assay on ACHN renal, in the assay on CAKI-1 renal, in the assay with K-562 leukemia, in the assay on OVCAR-4 ovarian, in the assay on OVCAR-5 ovarian and in the assay with OVCAR-8 ovarian was more than 100 µM in each case. Besides, the TGI in the assay with SK-OV-3 ovarian, in the assay on SN12C renal, in the assay with SNB-19 CNS and with UO-31 renal was more than 100 µM each time.
Take `CCN(CC)CC(O)c1cc(-c2ccc(Cl)cc2)nc2cc(Cl)ccc12` (stereo not given): the GI50 with ACHN renal was 1.64 µM; in the assay with CAKI-1 renal, 1.21 µM; in the assay with K-562 leukemia, 1.75 µM; in the assay with OVCAR-4 ovarian, 3.3 µM; in the assay with OVCAR-5 ovarian, 2.11 µM; with OVCAR-8 ovarian, 1.96 µM. Further, the GI50 was 3.44 µM in the assay on SK-OV-3 ovarian, 2.96 µM in the assay with SN12C renal, 4.34 µM with SNB-19 CNS and 1.06 µM in the assay with UO-31 renal. For the same compound, the TGI in the assay on ACHN renal was 3.39 µM; in the assay on CAKI-1 renal, 2.64 µM; in the assay with K-562 leukemia, 3.55 µM; with OVCAR-4 ovarian, 10.6 µM; with OVCAR-5 ovarian, 5.58 µM; in the assay on OVCAR-8 ovarian it was 4.12 µM. The TGI in the assay on SK-OV-3 ovarian is 12 µM; in the assay on SN12C renal, 12.7 µM; with SNB-19 CNS, 16 µM; in the assay with UO-31 renal, 3.27 µM.
Regarding `C=CCn1c(=O)c(C(=O)NC(=O)OCC)cn(C2CCCCC2)c1=O`, the TGI in the assay with ACHN renal, in the assay with CAKI-1 renal, in the assay on K-562 leukemia, in the assay with OVCAR-4 ovarian, in the assay with OVCAR-5 ovarian and in the assay on OVCAR-8 ovarian was more than 100 µM throughout. The TGI in the assay with SK-OV-3 ovarian, in the assay with SN12C renal, in the assay with SNB-19 CNS and with UO-31 renal was more than 100 µM throughout.
Consider `Oc1[nH]c2ccccc2c1/C=c1/ccc2c(c1)N=C(c1cc(F)cc(F)c1)N=2`, for which the GI50 in the assay on ACHN renal was 7.39 µM; in the assay with CAKI-1 renal, 2.47 µM; in the assay on K-562 leukemia, 3.28 µM; in the assay on OVCAR-4 ovarian it was 3.33 µM; in the assay on OVCAR-5 ovarian, 16.8 µM; in the assay on OVCAR-8 ovarian, 4.56 µM. Besides, the GI50 in the assay with SK-OV-3 ovarian is 14.2 µM; in the assay on SN12C renal, 11.4 µM; in the assay on SNB-19 CNS, 9.62 µM; with UO-31 renal it was 3.42 µM. Also, the TGI in the assay with ACHN renal worked out at 21.3 µM; in the assay with CAKI-1 renal, 15.1 µM; with K-562 leukemia, 13.8 µM; in the assay with OVCAR-4 ovarian, 13.5 µM; in the assay with OVCAR-5 ovarian it was 36.4 µM; in the assay on OVCAR-8 ovarian, 33.3 µM. For the same compound, the TGI worked out at 29 µM in the assay with SK-OV-3 ovarian, 30 µM in the assay with SN12C renal, 28 µM in the assay on SNB-19 CNS and 20.1 µM in the assay with UO-31 renal.
In the case of `Cc1cc(Cl)ccc1Nc1nc2c(s1)C(=O)c1ccccc1C2=O`, the TGI was 10.3 µM in the assay with ACHN renal; 20.3 µM in the assay on CAKI-1 renal; more than 23.3 µM with K-562 leukemia; 9.41 µM with OVCAR-4 ovarian; 8.61 µM in the assay with OVCAR-5 ovarian; 11.6 µM with OVCAR-8 ovarian. Besides, the TGI was 26.1 µM with SK-OV-3 ovarian, 3.33 µM in the assay with SN12C renal, 16.3 µM in the assay on SNB-19 CNS and 11.6 µM in the assay with UO-31 renal.
For the compound `Nc1nc(-c2ccc3ccccc3c2)cc(-c2cc(-c3ccc4ccccc4c3)nc(N)n2)n1`, the TGI in the assay with ACHN renal, in the assay on CAKI-1 renal, in the assay on K-562 leukemia, in the assay with OVCAR-4 ovarian, with OVCAR-5 ovarian and in the assay with OVCAR-8 ovarian was more than 100 µM in each case. Besides, the TGI in the assay with SK-OV-3 ovarian, in the assay on SN12C renal, with SNB-19 CNS and with UO-31 renal was more than 100 µM throughout.
Regarding `Cc1cc2nc3c4cc([N+](=O)[O-])ccc4n(CCN(C)C)c3nc2cc1C`, the GI50 in the assay on ACHN renal is 0.297 µM; in the assay with CAKI-1 renal it was 0.334 µM; with K-562 leukemia, 0.366 µM; in the assay with OVCAR-4 ovarian, 0.527 µM; in the assay on OVCAR-5 ovarian, 0.651 µM; with OVCAR-8 ovarian, 0.509 µM. Also, the GI50 with SK-OV-3 ovarian is 0.905 µM; in the assay with SN12C renal, 0.448 µM; in the assay with SNB-19 CNS, 0.487 µM; with UO-31 renal, 0.187 µM. For the same compound, the TGI in the assay on ACHN renal was 1.68 µM; with CAKI-1 renal, 2.21 µM; in the assay on K-562 leukemia, more than 100 µM; in the assay on OVCAR-4 ovarian, 6.6 µM; in the assay on OVCAR-5 ovarian, 9.82 µM; in the assay with OVCAR-8 ovarian it was more than 88 µM. The TGI is more than 43.4 µM in the assay with SK-OV-3 ovarian, more than 54.8 µM in the assay with SN12C renal, more than 32 µM in the assay on SNB-19 CNS and 2.52 µM with UO-31 renal.
Take `Cn1cc(-c2ccc3nnc(C(F)(F)c4ccc5ncccc5c4)n3n2)cn1`: the GI50 was 32.8 µM in the assay on ACHN renal; 31.4 µM in the assay on CAKI-1 renal; 78.1 µM with K-562 leukemia; 38.5 µM with OVCAR-4 ovarian; 71.9 µM in the assay on OVCAR-5 ovarian; 66.1 µM in the assay with OVCAR-8 ovarian. The GI50 with SK-OV-3 ovarian is more than 86.4 µM; in the assay on SN12C renal it was 35.4 µM; with SNB-19 CNS, 53.4 µM; in the assay on UO-31 renal it was 28.4 µM. The TGI in the assay on ACHN renal, in the assay with CAKI-1 renal, in the assay with K-562 leukemia, in the assay on OVCAR-4 ovarian, in the assay with OVCAR-5 ovarian and with OVCAR-8 ovarian was more than 100 µM in each case. For the same compound, the TGI in the assay with SK-OV-3 ovarian, with SN12C renal, with SNB-19 CNS and with UO-31 renal was more than 100 µM each time.
